What all share (format): biochemical
The target in one assay is T1, GST-Chk1 enzyme (Homo sapiens, UniProt O14757).
T1 sequence (O14757 1-476): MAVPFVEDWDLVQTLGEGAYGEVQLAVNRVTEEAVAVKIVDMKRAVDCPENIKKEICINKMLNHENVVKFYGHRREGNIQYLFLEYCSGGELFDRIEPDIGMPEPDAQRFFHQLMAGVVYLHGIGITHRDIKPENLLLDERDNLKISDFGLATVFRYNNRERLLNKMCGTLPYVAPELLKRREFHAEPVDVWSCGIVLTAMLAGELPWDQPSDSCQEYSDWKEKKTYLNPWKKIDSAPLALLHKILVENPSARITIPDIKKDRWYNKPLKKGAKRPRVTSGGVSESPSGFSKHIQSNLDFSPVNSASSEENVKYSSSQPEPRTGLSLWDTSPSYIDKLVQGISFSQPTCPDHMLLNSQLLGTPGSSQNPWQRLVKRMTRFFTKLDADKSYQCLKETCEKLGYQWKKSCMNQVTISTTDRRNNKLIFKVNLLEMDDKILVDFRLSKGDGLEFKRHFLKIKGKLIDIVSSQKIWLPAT
The experiment in a line: Chk1 kinase inhibition assay (33P phosphorylation of Chktide, filter plate). Conditions: 0.01 mM ATP, 11 nM GST-Chk1, 40 minutes at 30° C.; read-out: Chk1 IC50. On the procedure: The assay mixture containing the inhibitor and Chk1 enzyme was mixed together in a microtiter plate in a final volume of 50 μl and incubated for 40 minutes at 30° C.
The reaction was stopped by adding 50 μl of 50 mM phosphoric acid. 90 μl of the mixture was transferred to a pre-wetted 96-well Multiscreen MAPHNOB filtration plate (Millipore) and filtered on a vacuum manifold. […] The filtration plate was dried for 10 min at 65° C., scintillant added and phosphorylated peptide quantified in a scintillation counter (Trilux, PerkinElmer)

The target in assay [1] is CDK-2 enzyme, complexed with cyclin A (Homo sapiens, UniProt P24941). The experiment in a line: CDK2 enzyme inhibition assay (33P phosphorylation of peptide […], filter plate). The settings on record: CDK-2/cyclin A, 0.1 mM ATP, 40 min at 30° C. On the procedure:
(§1) The assay mixture containing the inhibitor and CDK-2 enzyme, complexed with cyclin A (0.4 U/ml) was mixed together in a microtiter plate in a final volume of 50 μl and incubated for 40 min at 30° C. The assay mixture contained 0.1 mM unlabeled ATP, 0.01 μCi/μl ^33P-γ-ATP, 0.03 mM peptide, 0.1 mg/ml BSA, 7.5 mM magnesium acetate, 50 mM HEPES-NaOH, pH 7.5. The reaction was stopped by adding 50 μl of 50 mM phosphoric acid. 90 μl of the mixture were transferred to a pre-wetted 96-well Multiscreen MAPHNOB filtration plate (Millipore) and filtered on a vacuum manifold. […] The filtration plate was dried for 10 min at 65° C., scintillant added and phosphorylated peptide quantified in a scintillation counter (Trilux, PerkinElmer)
HEPES is N-[2-Hydroxyethyl]piperazine-N′-[2-ethanesulfonic acid] BSA is bovine serum albumin.

Another assay has as its target T2, PDK1 enzyme (Homo sapiens, UniProt O15530).
T2 sequence (O15530 1-556): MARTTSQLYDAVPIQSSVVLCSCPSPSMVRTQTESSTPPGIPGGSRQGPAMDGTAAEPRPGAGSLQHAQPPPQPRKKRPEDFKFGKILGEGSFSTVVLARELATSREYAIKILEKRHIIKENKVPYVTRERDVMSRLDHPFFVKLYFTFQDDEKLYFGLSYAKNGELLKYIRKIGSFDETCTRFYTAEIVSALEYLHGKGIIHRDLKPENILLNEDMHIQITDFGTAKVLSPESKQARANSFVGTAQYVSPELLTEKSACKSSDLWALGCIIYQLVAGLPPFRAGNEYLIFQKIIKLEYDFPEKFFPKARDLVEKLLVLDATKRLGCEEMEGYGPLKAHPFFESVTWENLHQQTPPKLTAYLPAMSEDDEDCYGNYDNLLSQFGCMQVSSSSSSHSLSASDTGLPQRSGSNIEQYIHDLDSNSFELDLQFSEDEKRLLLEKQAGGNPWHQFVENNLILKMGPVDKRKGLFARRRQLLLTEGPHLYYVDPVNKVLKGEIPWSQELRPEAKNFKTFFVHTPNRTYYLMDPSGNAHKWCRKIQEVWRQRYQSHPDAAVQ
The experiment in a line: PDK1 kinase inhibition assay (33P phosphorylation of synthetic peptide, filter plate). The settings on record: 0.01 mM ATP, 60 min at 30° C.; read-out: PDK1 IC50. As for the experimental part: as §1, with “and PDK1 enzyme” for “and CDK-2 enzyme, complexed with cyclin A (0.4 U/ml)”, “for 60” for “for 40”, “contained 0.01” for “contained 0.1”, “^33P-γ-ATP, 0.075” for “^33P-γ-ATP, 0.03”, “acetate, 0.05M Tris.HCl,” for “acetate, 50 mM HEPES-NaOH,”, “pH 7.5, 0.5% 2-mercaptoethanol.” for “pH 7.5.”

For the compound `CC(C)c1cnn2c(Nc3ccc(S(=O)(=O)N(C)C)cc3)cc(C(=O)N3CCC(N)CC3)nc12` [Example 123], the IC50 is above 200000 nM on GST-Chk1 enzyme and 1340 nM in assay [1]. As for `CC1(C)CC(Nc2cc(Nc3ccc(S(=O)(=O)N4CCCC4)cc3)n3ncc(Br)c3n2)CC(C)(C)N1` [Example 179], the IC50 on PDK1 enzyme was found to be 4540 nM; in assay [1], 24000 nM. In the case of `CCc1cnn2c(Nc3ccc(S(=O)(=O)N(C)C)cc3)cc(NC3CC(C)(C)NC(C)(C)C3)nc12` [Example 175], the IC50 on PDK1 enzyme came out at 12900 nM; in assay [1], 22200 nM. Regarding `CS(=O)(=O)c1ccc(Nc2ccnc3ccnn23)cc1` [Example 19], the IC50 is above 200000 nM on PDK1 enzyme and 10400 nM in assay [1]. For the compound `N[C@H]1CC[C@H](Nc2cc(Nc3ccc(Oc4ccc(F)cc4)cc3)n3ncc(Cl)c3n2)CC1` [Example 190], the IC50 in assay [1] is 46 nM. `N[C@H]1CC[C@H](Nc2cc(Nc3ccc(S(=O)(=O)c4ccccc4)cc3)n3ncc(Br)c3n2)CC1` [Example 137]: the IC50 at GST-Chk1 enzyme came to 717 nM; at PDK1 enzyme, 1060 nM.

`CS(=O)(=O)c1ccc(Nc2cc(Cl)nc3c(Br)cnn23)cc1` [Example 144]: the values for the IC50 (at PDK1 enzyme; in assay [1]) were above 50000 nM and 230 nM, respectively.

`O=S(=O)(c1ccc(Nc2cc(Cl)nc3c(Cl)cnn23)cc1)c1cccs1` [Example 188] had an IC50 in assay [1] of 89 nM. Take `CCc1cnn2c(Nc3ccc(C(=O)NCCN(CC)CC)cc3)cc(Cl)nc12` [Example 152]: the IC50 at GST-Chk1 enzyme worked out at 32000 nM; in assay [1] it was 790 nM. In the case of `N[C@H]1CC[C@@H](Nc2cc(Nc3ccc(S(=O)(=O)Nc4nccs4)cc3)n3ncc(Br)c3n2)CC1` [Example 177], the IC50 at PDK1 enzyme amounted to 660 nM. Regarding `CN1CCN(S(=O)(=O)c2ccc(Nc3cc(Cl)nc4c(Br)cnn34)cc2)CC1` [Example 139], the values for the IC50 (at PDK1 enzyme; in assay [1]) were above 50000 nM and 176 nM, respectively. In the case of `CC(C)c1cnn2c(Nc3ccc(S(=O)(=O)N(C)C)cc3)cc(CN3CCC(O)CC3)nc12` [Example 170], the 50% inhibitory concentration (IC50) is above 200000 nM on PDK1 enzyme and 1800 nM in assay [1]. `Clc1cc(NCc2ccncc2)n2ncc(Br)c2n1` [Example 161]: the IC50 in assay [1] worked out at 230 nM.

In turn, `CC(C)c1cnn2c(Nc3ccc(S(=O)(=O)N(C)C)cc3)cc(C(=O)N3CCC(N4CCCC4)CC3)nc12` [Example 130] had an IC50 in assay [1] of 12200 nM. `CC(C)c1cnn2c(NC3CCN(S(=O)(=O)C(C)C)CC3)cc(Cl)nc12` [Example 159] came in with an IC50 in assay [1] of 1170 nM. Same read-out and setting: the same measure for `N[C@H]1CC[C@H](Nc2cc(Nc3ccc(Oc4cccnc4)cc3)n3ncc(Cl)c3n2)CC1` [Example 189]: 28 nM. With `CN(C)S(=O)(=O)c1ccc(Nc2cc(O[C@@H]3CCNC3)nc3c(Cl)cnn23)cc1` [Example 195], the IC50 on GST-Chk1 enzyme is 7790 nM; in assay [1], 240 nM. In the case of `CC(C)c1cnn2c(Nc3ccc(S(=O)(=O)N(C)C)cc3)cc(C(=O)N3CCC(CN)CC3)nc12` [Example 131], the IC50 in assay [1] came out at 9370 nM.

`Clc1cccc(Nc2cc(Cl)nc3c(Br)cnn23)c1` [Example 160] registered an IC50 in assay [1] of 108 nM.

`CC(C)c1cnn2c(NC3CCN(C(=O)OC(C)(C)C)CC3)cc(Cl)nc12` [Example 153] gave an IC50 in assay [1] of 3440 nM. With `O=S(=O)(c1ccccc1)c1ccc(Nc2cc(Cl)nc3c(Br)cnn23)cc1` [Example 136], the IC50 came to 16000 nM at PDK1 enzyme and 204 nM in assay [1]. For `CC(C)c1cnn2c(Nc3ccc(S(=O)(=O)N(C)C)cc3)cc(N[C@H]3CC[C@H](N)CC3)nc12` [Example 30, 3-isopropyl-5-(trans-4-aminocyclohexylamino)-7-(4-(N,N-dimethylsulphonamido)phenylamino)pyrazolo[1,5-a]pyrimidine], the figures for the IC50 on GST-Chk1 enzyme and at PDK1 enzyme were 5510 nM and 19900 nM, respectively.

As for `CC(C)c1cnn2c(Nc3ccc(S(=O)(=O)N(C)C)cc3)cc(N[C@H]3CC[C@@H](N)CC3)nc12` [Example 116], the IC50 at GST-Chk1 enzyme worked out at 2190 nM; on PDK1 enzyme, 536 nM. Take `O=S(=O)(c1ccc(Nc2cc(N[C@H]3CC[C@H](O)CC3)nc3c(Br)cnn23)cc1)N1CCCC1` [Example 176]: the results for the IC50 (at PDK1 enzyme; in assay [1]) were 3250 nM and 183 nM, respectively.

Consider `CC(C)c1cnn2c(Nc3ccc(S(=O)(=O)N(C)C)cc3)cc(Cl)nc12` [Example 27], for which the IC50 in assay [1] was 240 nM. In turn, `CN(C)S(=O)(=O)c1ccc(Nc2cc(O[C@H]3CC[C@H](N)CC3)nc3c(Br)cnn23)cc1` [Example 158] displayed an IC50 in assay [1] of 5 nM. Take `CN(C)S(=O)(=O)c1ccc(Nc2cc(N[C@H]3CC[C@H](N)CC3)nc3ccnn23)cc1` [Example 169]: the IC50 on PDK1 enzyme turned out to be 3360 nM; in assay [1], 98 nM. Turning to `Brc1cccc(-c2cc(NCc3ccncc3)n3nccc3n2)c1` [Example 3], the IC50 on GST-Chk1 enzyme amounted to 29600 nM; at PDK1 enzyme, 34600 nM. Compound `CC(C)c1cnn2c(Nc3ccc(S(=O)(=O)N(C)C)cc3)cc(CO)nc12` [Example 146] displayed an IC50 in assay [1] of 546 nM. Consider `CC(C)c1cnn2c(Nc3ccc(S(=O)(=O)N(C)C)cc3)cc(N3CCC(N)C3)nc12` (stereo not shown) [Example 129], for which the IC50 in assay [1] worked out at 1970 nM. In assay [1], `CNC(=O)C1CCN(C(=O)c2cc(Nc3ccc(S(=O)(=O)N(C)C)cc3)n3ncc(C(C)C)c3n2)CC1` [Example 133] yielded an IC50 of 5170 nM. The compound `CC(C)c1cnn2c(Nc3ccc(S(=O)(=O)N(C)CCN(C)C)cc3)cc(Cl)nc12` [Example 68] gave an IC50 in assay [1] of 52 nM.

For the compound `CC(C)c1cnn2c(Nc3ccc(S(=O)(=O)N(C)C)cc3)cc(N[C@H]3CCCC[C@H]3N)nc12` [Example 132], the IC50 at PDK1 enzyme worked out at 10400 nM; in assay [1], 3630 nM.

As to `CNCCNC(=O)c1cc(Nc2ccc(S(=O)(=O)N(C)C)cc2)n2ncc(C(C)C)c2n1` [Example 155], the IC50 stood at 53000 nM on GST-Chk1 enzyme and 142 nM in assay [1]. In the case of `CCc1cnn2c(Nc3ccc(S(=O)(=O)Nc4nccs4)cc3)cc(Cl)nc12` [Example 151], the figures for the IC50 (on PDK1 enzyme; in assay [1]) were 38000 nM and 110 nM, respectively.

In turn, `CN(C)S(=O)(=O)c1ccc(Nc2cc(N[C@H]3CC[C@@H](N)CC3)nc3c(S(C)(=O)=O)cnn23)cc1` [Example 200] registered an IC50 in assay [1] of 11200 nM.

In the case of `CC(C)c1cnn2c(Nc3ccc(S(N)(=O)=O)cc3)cc(N[C@H]3CC[C@H](N)CC3)nc12` [Example 134], the IC50 at PDK1 enzyme is 4430 nM; in assay [1], 26 nM. Turning to `CCc1cnn2c(Nc3ccc(S(=O)(=O)N4CCCC4)cc3)cc(Cl)nc12` [Example 142], the values for the IC50 (at PDK1 enzyme; in assay [1]) were above 200000 nM and 66 nM, respectively. On to `O=S(=O)(c1ccccc1)c1ccc(Nc2cc(N[C@H]3CC[C@H](O)CC3)nc3c(Br)cnn23)cc1` [Example 182], for which the values for the IC50 (on PDK1 enzyme; in assay [1]) were 3000 nM and 248 nM, respectively.

Source of the values: patent publication US20070179161A1, “Pyrazolopyrimidine compounds and their use in medicine” (VERNALIS (CAMBRIDGE) LIMITED., priority 2003, published 2007).
